Experimental data taken from patent US7928139B2 (Amgen Inc., priority 2006, dated 2011).

Each molecule was assayed against HIF PHD2 (Homo sapiens, UniProt Q9GZT9) (assay: PHD2 inhibition assay (TR-FRET, VCB-Eu detection of hydroxylated P564-HIF1α peptide)). Conditions: 2 nM PHD2, 100 nM P564-HIF1α peptide, 0.25 μM 2-oxoglutarate, 100 μM FeCl2, 2 mM ascorbic acid.
Assay type: biochemical
Experimental: Inhibition of HIF PHD2 activity was quantified utilizing the TR-FRET technology. HIF PHD2 catalyzes a hydroxyl modification on the proline residue of the P564-HIF1α peptide substrate (Biotin-DLEMLAPYIPMDDDFQL (SEQ ID NO: 7)) resulting in recognition and binding of the europylated Von Hippel-Lindau protein (pVHL), elongin B and elongin C heterotrimeric (VCB-Eu) complex.
The PHD2 inhibition assay was executed by addition of freshly dissolved FeCl2 to 178.57 μM (100 μM final concentration) in PHD2 Reaction Buffer containing 30 mM MES, pH 6, 10 mM NaCl, 0.25% Brij-35, 0.01% BSA, and 1% DMSO. 28 μL of the iron solution and 2 μL of inhibitor compounds serially diluted in 100% DMSO (5% DMSO final) were added to black polypropylene 96-well microtiter plates. To that, 10 μL of 10 nM PHD2 (2 nM final) was added to all wells of the plate except for the 8 wells of column 12 (LO control), and allowed to incubate at room temperature on the shaker for one hour. Column 6 was the HI control containing PHD2 enzyme and 5% DMSO vehicle, but no inhibitor compound. To initiate the PHD2 enzymatic reaction, 10 μL of a solution containing 500 nM P564-HIF1α peptide (100 nM final), 10 mM ascorbic acid (2 mM final), and 1.25 μM 2-oxoglutarate (α-ketoglutarate; 0.25 μM final) in PHD2 Reaction Buffer was added to all wells of the plate and allowed to incubate on the shaker at room temperature for one hour.
The reaction was terminated by addition of 25 μL TR-FRET Buffer (50 mM TRIS-HCl, pH 9, 100 mM NaCl, 0.05% BSA, and 0.5% Tween-20) containing 150 mM succinate (product inhibitor; 50 mM final), 75 nM streptavidin-APC (25 nM final), and 7.5 nM VCB-Eu (2.5 nM final). The TR-FRET detection reagents were placed on a shaker for 1 hour to reach binding equilibrium before reading on the Discovery platform (PerkinElmer). Europium is excited at 315 nm and phosphoresces at 615 nm with a large Stoke's shift. APC, in turn, emits at 655 nm upon excitation at 615 nm. The TR-FRET signal is measured as the ratio of the APC 655 nm signal divided by the internal europium reference 615 nm emission signal.
The POC (percentage of control) was determined by comparing the signal from hydroxylated peptide substrate in the enzyme reaction containing inhibitor compound with that from PHD2 enzyme with DMSO vehicle alone (HI control), and no enzyme (LO control). POC was calculated using the formula: % control (POC)=(cpd−average LO)/(average HI−average LO)*100. Data (consisting of POC and inhibitor concentration in μM) was fitted to a 4-parameter equation (y=A+((B−A)/(1+((x/C)^D))), where A is the minimum y (POC) value, B is the maximum y (POC), C is the x (cpd concentration) at the point of inflection and D is the slope factor) using a Levenburg-Marquardt non-linear regression algorithm.

HIF PHD2, sequence (Q9GZT9 whole entry): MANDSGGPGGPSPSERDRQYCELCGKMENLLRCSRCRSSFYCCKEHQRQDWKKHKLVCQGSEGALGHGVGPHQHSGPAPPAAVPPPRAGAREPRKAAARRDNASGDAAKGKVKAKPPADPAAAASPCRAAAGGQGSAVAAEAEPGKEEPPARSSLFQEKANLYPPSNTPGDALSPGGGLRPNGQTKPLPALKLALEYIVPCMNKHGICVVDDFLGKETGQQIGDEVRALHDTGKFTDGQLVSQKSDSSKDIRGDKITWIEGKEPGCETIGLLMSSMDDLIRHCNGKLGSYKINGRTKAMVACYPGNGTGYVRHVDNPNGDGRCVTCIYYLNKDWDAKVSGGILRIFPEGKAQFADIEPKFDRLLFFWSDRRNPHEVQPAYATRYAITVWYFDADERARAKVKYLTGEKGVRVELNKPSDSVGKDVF

IC50 [nM] | Compound
500 to 1000 | CC1(C)C(=O)C(C(=O)NCC(=O)O)=C(O)c2cc(-c3ccc(Cl)cc3)ccc21 [Example 38, N-((6-(4-Chlorophenyl)-4-hydroxy-1,1-dimethyl-2-oxo-naphthalen-3-yl)carbonyl)glycine]
< 100 | CC1(C)C(=O)C(C(=O)NCC(=O)O)=C(O)c2cc(Br)ccc21 [Example 40, N-((6-Bromo-4-hydroxy-1,1-dimethyl-2-oxo-naphthalen-3-yl)carbonyl)glycine]
< 100 | CC1(C)C(=O)C(C(=O)NCC(=O)O)=C(O)c2ccc(C#N)cc21 [Example 41, N-((7-Cyano-4-hydroxy-1,1-dimethyl-2-oxo-naphthalen-3-yl)carbonyl)glycine]
< 100 | CC1(C)C(=O)C(C(=O)NCC(=O)O)=C(O)c2cc(C#N)ccc21 [Example 42, N-((6-Cyano-4-hydroxy-1,1-dimethyl-2-oxo-naphthalen-3-yl)carbonyl)glycine]
100 to 500 | CCC1(C)C(=O)C(C(=O)NCC(=O)O)=C(O)c2ccc(Cl)cc21 (centres unmarked) [Example 43, N-((7-Chloro-1-ethyl-4-hydroxy-1-methyl-2-oxo-naphthalen-3-yl)carbonyl)glycine]
< 100 | CC1(C)C(=O)C(C(=O)NCC(=O)O)=C(O)c2ccc(F)cc21 [Example 47, N-((7-Fluoro-4-hydroxy-1,1-dimethyl-2-oxo-naphthalen-3-yl)carbonyl)glycine]
< 100 | CC1(C)C(=O)C(C(=O)NCC(=O)O)=C(O)c2ccc(Cl)cc21 [Example 48, N-((7-Chloro-4-hydroxy-1,1-dimethyl-2-oxo-naphthalen-3-yl)carbonyl)glycine]
< 100 | CC1(C)C(=O)C(C(=O)NCC(=O)O)=C(O)c2ccc(C(F)(F)F)cc21 [Example 49, N-((7-Trifluoromethyl-4-hydroxy-1,1-dimethyl-2-oxo-naphthalen-3-yl)carbonyl)glycine]
< 100 | CC1(C)C(=O)C(C(=O)NCC(=O)O)=C(O)c2ccc(Br)cc21 [Example 53, N-((7-Bromo-4-hydroxy-1,1-dimethyl-2-oxo-naphthalen-3-yl)carbonyl)glycine]
< 100 | CC1(C)C(=O)C(C(=O)NCC(=O)O)=C(O)c2cc(Cl)cc(F)c21 [Example 57, N-((6-Chloro-8-fluoro-4-hydroxy-1,1-dimethyl-2-oxo-naphthalen-3-yl)carbonyl)glycine]
< 100 | CC1(C)C(=O)C(C(=O)NCC(=O)O)=C(O)c2cc(F)c(F)cc21 [Example 59, N-((6,7-Difluoro-4-hydroxy-1,1-dimethyl-2-oxo-naphthalen-3-yl)carbonyl)glycine]
< 100 | Cc1ccc2c(c1)C(O)=C(C(=O)NCC(=O)O)C(=O)C2(C)C [Example 61, N-((6-Methyl-4-hydroxy-1,1-dimethyl-2-oxo-naphthalen-3-yl)carbonyl)glycine]
< 100 | CC1(C)C(=O)C(C(=O)NCC(=O)O)=C(O)c2ccccc21 [Example 63, N-((4-Hydroxy-1,1-dimethyl-2-oxo-naphthalen-3-yl)carbonyl)glycine]
< 100 | CC1(C)C(=O)C(C(=O)NCC(=O)O)=C(O)c2cc(Cl)c(Cl)cc21 [Example 64, N-((6,7-Dichloro-4-hydroxy-1,1-dimethyl-2-oxo-naphthalen-3-yl)carbonyl)glycine]

Second part, the molecule before the results:

Compound | IC50 [nM]
CN(C)c1ccc(-c2ccc3c(c2)C(O)=C(C(=O)NCC(=O)O)C(=O)C3(C)C)cc1 [Example 36, N-((6-(4-(Dimethylamino)phenyl)-4-hydroxy-1,1-dimethyl-2-oxo-naphthalen-3-yl)carbonyl)glycine] | 100 to 500
CC1(C)C(=O)C(C(=O)NCC(=O)O)=C(O)c2cc(-c3ccccc3Cl)ccc21 [Example 37] | 500 to 1000
CN(C)c1cccc(-c2ccc3c(c2)C(O)=C(C(=O)NCC(=O)O)C(=O)C3(C)C)c1 [Example 39, N-((6-(3-(Dimethylamino)phenyl)-4-hydroxy-1,1-dimethyl-2-oxo-naphthalen-3-yl)carbonyl)glycine] | 100 to 500
O=C(O)CNC(=O)C1=C(O)c2ccc(F)cc2C2(CCOCC2)C1=O [Example 44, N-((7-Fluoro-4-hydroxy-2-oxo-2′,3′,5′,6′-tetrahydro-spiro[naphthalene-1,4′-pyran]-3-yl)carbonyl)glycine] | < 100
O=C(O)CNC(=O)C1=C(O)c2ccc(C(F)(F)F)cc2C2(CCOCC2)C1=O [Example 45, N-((7-Trifluoromethyl-4-hydroxy-2-oxo-2′,3′,5′,6′-tetrahydro-spiro[naphthalene-1,4′-pyran]-3-yl)carbonyl)glycine] | < 100
O=C(O)CNC(=O)C1=C(O)c2ccc(Cl)cc2C2(CCOCC2)C1=O [Example 46, N-((7-Chloro-4-hydroxy-2-oxo-2′,3′,5′,6′-tetrahydro-spiro[naphthalene-1,4′-pyran]-3-yl)carbonyl)glycine] | < 100
C[C@H](NC(=O)C1=C(O)c2ccc(Br)cc2C(C)(C)C1=O)C(=O)O [Example 50, N-((7-Bromo-4-hydroxy-1,1-dimethyl-2-oxo-naphthalen-3-yl)carbonyl)-L-alanine] | 100 to 500
CC1(C)C(=O)C(C(=O)NCC(=O)O)=C(O)c2ccc(-c3cccnc3)cc21 [Example 51, N-((7-(3-Pyridyl)-4-hydroxy-1,1-dimethyl-2-oxo-naphthalene-3-yl)carbonyl)glycine] | < 100
CC1(C)C(=O)C(C(=O)NCC(=O)O)=C(O)c2ccc(-c3ccccc3)cc21 [Example 52, N-((7-Phenyl-4-hydroxy-1,1-dimethyl-2-oxo-naphthalen-3-yl)carbonyl)glycine] | 100 to 500
CC(C)(NC(=O)C1=C(O)c2cc(Cl)ccc2C2(CCOCC2)C1=O)C(=O)O [Example 54, N-((6-Chloro-4-hydroxy-2-oxo-2′,3′,5′,6′-tetrahydro-spiro[naphthalene-1,4′-pyran]-3-yl)carbonyl)-2-methylalanine] | > 10000
C[C@H](NC(=O)C1=C(O)c2cc(Cl)ccc2C2(CCOCC2)C1=O)C(=O)O [Example 55, N-((6-Chloro-4-hydroxy-2-oxo-2′,3′,5′,6′-tetrahydro-spiro[naphthalene-1,4′-pyran]-3-yl)carbonyl)-L-alanine] | 100 to 500
C[C@@H](NC(=O)C1=C(O)c2cc(Cl)ccc2C2(CCOCC2)C1=O)C(=O)O [Example 56, N-((6-Chloro-4-hydroxy-2-oxo-2′,3′,5′,6′-tetrahydro-spiro[naphthalene-1,4′-pyran]-3-yl)carbonyl)-D-alanine] | > 10000
O=C(O)CNC(=O)C1=C(O)c2cc(F)c(F)cc2C2(CCOCC2)C1=O [Example 58, N-((6,7-Difluoro-4-hydroxy-2-oxo-2′,3′,5′,6′-tetrahydro-spiro[naphthalene-1,4′-pyran]-3-yl)carbonyl)glycine] | < 100
O=C(O)CNC(=O)C1=C(O)c2cc(Cl)ccc2C2(CCCCC2)C1=O [Example 60, N-((6′-Chloro-4′-hydroxy-2′-oxo-spiro[cyclohexane-1,1′-naphthalen]-3′-yl)carbonyl)glycine] | 100 to 500
O=C(O)CNC(=O)C1=C(O)c2cc(Cl)c(Cl)cc2C2(CCOCC2)C1=O [Example 62, N-((6,7-Dichloro-4-hydroxy-2-oxo-2′,3′,5′,6′-tetrahydro-spiro[naphthalene-1,4′-pyran]-3-yl)carbonyl)glycine] | < 100
Cc1ccccc1-c1ccc2c(c1)C(O)=C(C(=O)NCC(=O)O)C(=O)C2(C)C [Example 65, N-((6-(2-Methylphenyl)-4-hydroxy-1,1-dimethyl-2-oxo-naphthalen-3-yl)carbonyl)glycine] | 500 to 1000
C[C@H](NC(=O)C1=C(O)c2cc(Cl)ccc2C(C)(C)C1=O)C(=O)O [Example 66, N-((6-Chloro-4-hydroxy-1,1-dimethyl-2-oxo-naphthalen-3-yl)carbonyl)-L-alanine] | 100 to 500
O=C(O)CNC(=O)C1=C(O)c2cc(-c3ccccc3)ccc2C2(CCCC2)C1=O [Example 67, N-((4′-Hydroxy-2′-oxo-6′-phenyl-spiro[cyclopentane-1,1′-naphthalen]-3′-yl)carbonyl)glycine] | 1000 to 10000
